# Laboratory results taken from patent publication US6806275B2, “Arylpiperidine derivatives and use thereof” (Nihon Nohyaku Co., Ltd., priority 1998, dated 2004).
# Columns and labels:
# human D4.2 receptor = target: T1, human D4.2 receptor (Homo sapiens, UniProt P21917, DEL265-296); test: Dopamine D4 receptor binding assay ([3H]spiperone); settings: CHO cell membrane expressing human D4.2 receptor; [3H]spiperone 0.5 nM; 27° C., 2 hours
# T1 construct: expressed in transfected cells; host or cells: CHO cells (membrane preparation)
# T1 sequence (P21917 with tags, fused parts or gaps DEL265-296): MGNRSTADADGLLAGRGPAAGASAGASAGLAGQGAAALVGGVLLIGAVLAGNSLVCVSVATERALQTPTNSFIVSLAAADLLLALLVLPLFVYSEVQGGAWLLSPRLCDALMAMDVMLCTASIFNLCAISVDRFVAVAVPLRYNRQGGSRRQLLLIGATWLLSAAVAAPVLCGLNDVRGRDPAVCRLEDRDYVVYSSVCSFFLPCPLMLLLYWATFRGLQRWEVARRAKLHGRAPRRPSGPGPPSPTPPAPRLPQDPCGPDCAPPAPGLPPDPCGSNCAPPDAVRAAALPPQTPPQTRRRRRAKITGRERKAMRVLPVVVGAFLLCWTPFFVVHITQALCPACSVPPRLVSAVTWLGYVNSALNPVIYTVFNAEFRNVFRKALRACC
# Protocol: 1. Dopamine D4 Receptor Binding Assay
# Chinese hamster ovarium (CHO) cell membrane wherein human D4.2 receptor was expressed was used as a receptor preparation.
# [^3H] spiperone was used as a [^3H]-labeled ligand.
# Human D4.2 receptor binding assay: The (CHO) cell membrane wherein human D4.2 receptor was expressed, [^3H] spiperone (0.5 nM) and each test drug were incubated at 27° C. for 2 hours in 50 mM Tris-hydrochloric acid buffer (pH 7.4) containing 5 mM EDTA, 1.5 mM calcium chloride, 5 mM potassium chloride and 120 mM sodium chloride.
# (§1) After completion of the reaction, the reaction mixture was filtered by suction through a glass filter (GF/B), and radioactivity in the filter paper was measured with a liquid scintillation spectrometer.
# Binding under the reaction of [^3H] spiperone carried out in the presence of 10 μM haloperidol was defined as nonspecific binding of [^3H] spiperone, and the difference between the total binding and the nonspecific binding was defined as specific binding.
# [1] = target: T2, Dopamine D2 receptor (rat striatum membrane) (Rattus norvegicus, UniProt P61169); test: Dopamine D2 receptor binding assay ([3H]raclopride); settings: [3H]raclopride 1 nM, 25° C., 1 hour
# T2 construct: Rat striatum was homogenized in 50 mM Tris-hydrochloric acid buffer (pH 7.4); from tissue; host or cells: rat striatum
# T2 sequence (P61169 whole entry): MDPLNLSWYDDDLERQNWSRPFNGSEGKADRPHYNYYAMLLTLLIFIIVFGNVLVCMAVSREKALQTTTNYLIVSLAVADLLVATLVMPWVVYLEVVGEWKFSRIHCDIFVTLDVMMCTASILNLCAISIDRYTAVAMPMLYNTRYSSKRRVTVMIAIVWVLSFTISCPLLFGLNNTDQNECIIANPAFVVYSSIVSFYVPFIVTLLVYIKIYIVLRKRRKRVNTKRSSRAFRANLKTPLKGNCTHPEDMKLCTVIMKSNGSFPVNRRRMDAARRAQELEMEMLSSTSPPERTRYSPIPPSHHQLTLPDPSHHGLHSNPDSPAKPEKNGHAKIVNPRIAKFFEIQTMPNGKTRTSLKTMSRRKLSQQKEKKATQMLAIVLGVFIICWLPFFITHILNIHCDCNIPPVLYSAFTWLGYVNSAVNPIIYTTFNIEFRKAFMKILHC
# Protocol: 2. Dopamine D2 Receptor Binding Assay
# Rat striatum membrane was used as a receptor preparation.
# [^3H] raclopride was used as a [^3H]-labeled ligand.
# Preparation of the receptor preparation: Rat striatum was homogenized in 50 mM Tris-hydrochloric acid buffer (pH 7.4), and the homogenate was centrifuged at 48,000×g and the pellet was washed once with Tris-hydrochloric acid buffer. The washed pellet was suspended in 50 mM Tris-hydrochloric acid buffer (pH 7.4) containing 120 mM sodium chloride, 5 mM potassium chloride, 2 mM calcium chloride and 1 mM magnesium chloride, to obtain a membrane preparation.
# Dopamine D2 receptor binding assay: The membrane preparation (0.5 mg protein/ml), [^3H] raclopride (1 nM) and each test drug were incubated at 25° C. for 1 hour.
# as §1
# Binding under the reaction of [^3H] raclopride carried out in the presence of 10 μM haloperidol was defined as nonspecific binding of [^3H] lacropirido, and the difference between the total binding and the nonspecific binding was defined as specific binding.
IC50 (human D4.2 receptor) [nM],IC50 [1] [nM],melting point [°C],Compound
3.1,67.3,–,"Nc1nc(-c2ccc(F)cc2)c(CCN2CCC(c3coc4cc(F)ccc34)CC2)s1 [B-01, 2-amino-4-(4-fluorophenyl)-5-[2-[4-(6-fluorobenzofuran-3-yl)piperidin-1-yl]ethyl]thiazole]"
–,–,186 to 188,"Oc1nc(-c2ccc(F)cc2)c(CCN2CCC(c3coc4cc(F)ccc34)CC2)s1 [B-06, 2-hydroxy-4-(4-fluorophenyl)-5-[2-[4-(6-fluorobenzofuran-3-yl)piperidin-1-yl]ethyl]thiazole]"
2,81.1,203 to 203.5,Nc1nc(-c2ccc(F)cc2)c(CCN2CCC(c3c[nH]c4ccccc34)CC2)s1 [B-09]
0.4,26.6,165 to 167,Cc1nc(-c2ccc(F)cc2)c(CCN2CCC(c3c[nH]c4ccccc34)CC2)s1 [B-11]
32,> 1000,282 to 284,Nc1nc(-c2ccc(F)cc2)c(CCN2CCC(n3cnc4cc(F)ccc43)CC2)s1 [B-25]
5.5,298,–,"Nc1nc(-c2ccc(F)cc2)c(CCN2CCC(n3nnc4cc(F)ccc43)CC2)s1 [B-26, 2-amino-4-(4-fluorophenyl)-5-[2-[4-(5-fluoro-1H-benzotriazol-1-yl)piperidin-1-yl]ethyl]thiazole]"
2.4,206,145 to 146,Cc1nc(-c2ccc(F)cc2)c(CCN2CCC(n3nnc4cc(F)ccc43)CC2)s1 [B-29]
–,–,223 to 224,"CSc1nc(-c2ccc(F)cc2)c(CCN2CCC(n3nnc4cc(F)ccc43)CC2)[nH]1 [C-03, 2-methylthio-4-(4-fluorophenyl)-5-[2-[4-(5-fluoro-1H-benzotriazol-1-yl)piperidin-1-yl]ethyl]imidazole]"
–,–,162 to 163,"Fc1ccc(-c2[nH]ncc2CCN2CCC(c3csc4cc(F)ccc34)CC2)cc1 [Example 10, 5-(4-fluorophenyl)-4-[2-[4-(6-fluorobenzo[b]thiophen-3-yl)piperidin-1-yl]ethyl]pyrazole]"
–,–,123 to 124,"Fc1ccc(-c2ncncc2CCN2CCC(c3csc4cc(F)ccc34)CC2)cc1 [Example 11, 6-(4-fluorophenyl)-5-[2-[4-(6-fluorobenzo[b]thiophen-3-yl)piperidin-1-yl]ethyl]pyrimidine]"
